# From patent US20070004743A1, “Intranasal administration of mc4-r agonists” (priority 2002, published 2007)
# How the values were obtained:
# ob/ob mice [1] = assay: Intranasal (IN) efficacy, food intake in fasted ob/ob mice; format: in vivo
# Protocol: Subjects: ob/ob mice; approximately 10 weeks old males; body weight 50-60 grams.
# The mice were divided into the following groups: • 1) Mice received only vehicle. The vehicle was one of the following: water, 10 mM phosphate buffer, 5% captisol in 10 mM phosphate buffer (see Table 1 for details). • 2) Mice received a compound of an embodiment of the present invention at a dosage of 1 mg/kg. • 3) Mice received a compound of an embodiment of the present invention at a dosage of 3 mg/kg. • 4) Mice received a compound of an embodiment of the present invention at a dosage of 6 mg/kg. n=6-8 animals per group
# Note: For compound 1 and compound 2, the 1 mg/kg group was not included.
# Animals were fasted overnight (˜16 hours), and an MC4-R agonist compound as described in Tables 1-3 was administered at 8:30 am next day. The administration volume was 20-25 μl/50 grams of body weight. […]
# IN Efficacy Procedure: Mice were fasted overnight. […] Food weight was measured at 1, 2, 3, 4, 6, and 8 hours following the dosing. […]
# (§1) IN Efficacy Procedure: Mice were fasted overnight. […] Food weight was measured at 1, 2, 3, 4, 6, and 8 hours following the dosing.
# as §1
# IN Efficacy Procedure: Mice were fasted overnight. […] Food weight was measured at 1, 2, 3, 4, and 6 hours following the dosing.
# ob/ob mice [2] = assay: Oral (PO) efficacy, food intake in fasted ob/ob mice; format: in vivo; settings: 30 mg/kg given orally, FIG. 1B
# Protocol: Subjects: ob/ob mice, ˜10 weeks old males. Body weight ˜50 grams.
# PO Efficacy Groups: • 1) Vehicle=water • 2) Compound 1=200 μl of 2.5 mg/ml (10 mg/kg) • 3) Compound 1=200 μl of 7.5 mg/ml (30 mg/kg) n=8/group fasted
# PO Efficacy Procedure: Mice were fasted overnight. At about 9:00 am the next morning, they were dosed with 200 μl of vehicle or compound solution by oral gavage. Mice were fed with pre-weighed food immediately after dosing, and had access to water the entire time. Food weight was measured at 1, 2, 3, 4, 6, and 24 hours following the dosing.
# [3] = humans, cited from earlier work; for body fat: intranasal administration
# [4] = acute intranasal, humans; ACTH4-10 1 mg, desacetyl-αMSH equimolar 1.68 mg; cited from earlier work
# [5] = after intranasal administration
Compound,"reduction in cumulative food intake (ob/ob mice [1]; 3 mg/kg administered intranasally, FIG. 1A)","increase in biological effect, intranasal versus oral, dose-normalised (ob/ob mice [1]; ((59%/39%)÷(3/30)), 3 mg/kg intranasal vs 30 mg/kg oral)",decrease in cumulative food intake (ob/ob mice [2]),body fat [3],processing negativity (PN) of the ERP over frontal and central cortical areas [4],"insulin levels [3, 5]","plasma leptin levels [3, 5]"
COc1ccc(CCNC(=O)c2ccc(N/C(=N/[C@H]3C[C@H]4C[C@@H]([C@@H]3C)C4(C)C)N3CCN[C@@H](C)C3)cc2)c(F)c1 [Compound 1],59%,approximately 15.1 times,39%,–,–,–,–
desacetyl-αMSH,–,–,–,nonsignificant,ineffective,–,–
"melanocyte stimulating hormone/adrenocorticotropin4-10 (MEHFRWG; Corticotropin; UniProt P01189 141-147, looked up, fragment) [MSH/ACTH4-10]",–,–,–,reduced body fat,reduced,decreased,decreased
